Experiments:
[1] = Human microsome stability assay; format: in vitro ADME; settings: human liver microsomes, 1 μM test compound, 37° C., NADPH regenerating system
Description: The human microsomal stability assay is used for early assessment of metabolic stability of a test compound in human liver microsomes.
Human liver microsomes (Cat. NO.: 452117, Corning, USA; Cat. NO.: H2610, Xenotech, USA) were preincubated with test compound for 10 minutes at 37° C. in 100 mM potassium phosphate buffer, pH 7.4. The reactions were initiated by adding NADPH regenerating system. The final incubation mixtures contained 1 μM test compound, 0.5 mg/mL liver microsomal protein, 1 mM MgCl2, 1 mM NADP, 1 unit/mL isocitric dehydrogenase and 6 mM isocitric acid in 100 mM potassium phosphate buffer, pH 7.4. After incubation times of 0, 3, 6, 9, 15 and 30 minutes at 37° C., 300 μL of cold acetonitrile (including internal standard) was added to 100 μL incubation mixture to terminate the reaction. Following precipitation and centrifugation, the amount of compound remaining in the samples were determined by LC-MS/MS. Controls of no NADPH regenerating system at zero and 30 minutes were also prepared and analyzed.

hERG channel = hERG channel (Homo sapiens (Human), UniProt Q12809); test: hERG channel inhibition assay (patch-clamp, CHO cells); format: cell-based; settings: for IC50 / IC20: CHO hERG cells, whole-cell patch-clamp; for IC20: human, CHO cells stably expressing hERG channels; for hERG IC20/TLR7 IC50 / hERG IC20/TLR8 IC50 / hERG IC20/TLR9 IC50: safety ratio
Description: The hERG K^+ channels were cloned in humans and stably expressed in a CHO (Chinese hamster ovary) cell line. CHOhERG cells were used for patch-clamp (voltage-clamp, whole-cell) experiments. Cells were stimulated by a voltage pattern to activate hERG channels and conduct IKhERG currents (rapid delayed outward rectifier potassium current of the hERG channel). After the cells were stabilized for a few minutes, the amplitude and kinetics of IKhERG were recorded at a stimulation frequency of 0.1 Hz (6 bpm). Thereafter, the test compound was added to the preparation at increasing concentrations. For each concentration, an attempt was made to reach a steady-state effect, usually, this was achieved within 3-10 min at which time the next highest concentration was applied. The amplitude and kinetics of IKhERG are recorded in each concentration of the drug which were compared to the control values (taken as 100%). (references: Redfern W S, Carlsson L, Davis A S, Lynch W G, MacKenzie I, Palethorpe S, Siegl P K, Strang I, Sullivan A T, Wallis R, Camm A J, Hammond T G. 2003; Relationships between preclinical cardiac electrophysiology, clinical QT interval prolongation and torsade de pointes for a broad range of drugs: evidence for a provisional safety margin in drug development. Cardiovasc. Res. 58:32-45, Sanguinetti M C, Tristani-Firouzi M. 2006; hERG potassium channels and cardiac arrhythmia. Nature 440:463-469, Webster R, Leishman D, Walker D. 2002; Towards a drug concentration effect relationship for QT prolongation and torsades de pointes. Curr. Opin. Drug Discov. Devel. 5:116-26).

TLR7 and TLR8 = test: Human PBMC cell-based assay, TLR7 and TLR8; settings: R848 at 1 μg/mL, overnight, cytokine readout, read-out: hPBMC/TLR78 IC50
Source text: Unlike the HEK reporter cell lines, human peripheral blood mononuclear cell (PBMC) represents primary human immune cells in blood mainly consisting of lymphocytes, monocytes, and dendritic cells. These cells express TLR7, TLR8, or TLR9, and therefore are natural responders to respective ligand stimulation. Upon activation of these TLRs, PBMCs secrete similar cytokines and chemokines in vitro and in vivo, and therefore the in vitro potency of a TLR7/8/9 antagonist in human PBMC is readily translatable to its pharmacodynamics response in vivo.
Human peripheral blood mononuclear cells (PBMC) were isolated from freshly-drawn lithium-heparinized (Lithium Heparin Plus blood Collection tube, BD Vacutainer®) healthy donor whole blood by density gradient (Ficoll-Paque™ PLUS, GE Healthcare life Sciences). Briefly, 50 mL of blood was diluted with 25 mL PBS (without Ca^2+, Mg^2+) in a 50 mL conical tube with porous barrier (Leucosep tube, Greiner bio-one), where 15.5 mL Ficoll-Paque was under laid after spinning. Tubes were centrifuged for 20 minutes at 800×g (1946 rpm) with the brake in the off position, and PBMC were collected from the buffy coat. Cells were then washed twice in PBS, and red blood cells were lysed by suspension in 2 mL (Red Blood Cell Lysis Buffer, Alfa Aesar) for 5-10 minutes at room temperature. After a final wash in PBS, PBMC were resuspended at a final concentration of 2×10^6 cells/mL in RPMI-1640 media with GlutaMAX™ (Gibco) supplemented with 10% Fetal Bovine Serum (Sigma) and plated at 150 μL/well (3×10^5 cells/well) in tissue culture treated round bottom 96-well plates (Corning Incorporated). Antagonist compounds (compounds of this invention) solubilized and serial diluted in 100% DMSO were added in duplicate to cells to yield a final concentration of 1% DMSO (v/v). […] Cell culture supernatants were collected, and levels of various human cytokines were assessed by Luminex assay (ProcartaPlex™ Multiplex Immunoassay, Invitrogen) or ELISA procedure according to the manufacturer's recommended protocol (eBioscience, ThermoFisher Scientific). […]

hERG channel, sequence (Q12809 whole entry): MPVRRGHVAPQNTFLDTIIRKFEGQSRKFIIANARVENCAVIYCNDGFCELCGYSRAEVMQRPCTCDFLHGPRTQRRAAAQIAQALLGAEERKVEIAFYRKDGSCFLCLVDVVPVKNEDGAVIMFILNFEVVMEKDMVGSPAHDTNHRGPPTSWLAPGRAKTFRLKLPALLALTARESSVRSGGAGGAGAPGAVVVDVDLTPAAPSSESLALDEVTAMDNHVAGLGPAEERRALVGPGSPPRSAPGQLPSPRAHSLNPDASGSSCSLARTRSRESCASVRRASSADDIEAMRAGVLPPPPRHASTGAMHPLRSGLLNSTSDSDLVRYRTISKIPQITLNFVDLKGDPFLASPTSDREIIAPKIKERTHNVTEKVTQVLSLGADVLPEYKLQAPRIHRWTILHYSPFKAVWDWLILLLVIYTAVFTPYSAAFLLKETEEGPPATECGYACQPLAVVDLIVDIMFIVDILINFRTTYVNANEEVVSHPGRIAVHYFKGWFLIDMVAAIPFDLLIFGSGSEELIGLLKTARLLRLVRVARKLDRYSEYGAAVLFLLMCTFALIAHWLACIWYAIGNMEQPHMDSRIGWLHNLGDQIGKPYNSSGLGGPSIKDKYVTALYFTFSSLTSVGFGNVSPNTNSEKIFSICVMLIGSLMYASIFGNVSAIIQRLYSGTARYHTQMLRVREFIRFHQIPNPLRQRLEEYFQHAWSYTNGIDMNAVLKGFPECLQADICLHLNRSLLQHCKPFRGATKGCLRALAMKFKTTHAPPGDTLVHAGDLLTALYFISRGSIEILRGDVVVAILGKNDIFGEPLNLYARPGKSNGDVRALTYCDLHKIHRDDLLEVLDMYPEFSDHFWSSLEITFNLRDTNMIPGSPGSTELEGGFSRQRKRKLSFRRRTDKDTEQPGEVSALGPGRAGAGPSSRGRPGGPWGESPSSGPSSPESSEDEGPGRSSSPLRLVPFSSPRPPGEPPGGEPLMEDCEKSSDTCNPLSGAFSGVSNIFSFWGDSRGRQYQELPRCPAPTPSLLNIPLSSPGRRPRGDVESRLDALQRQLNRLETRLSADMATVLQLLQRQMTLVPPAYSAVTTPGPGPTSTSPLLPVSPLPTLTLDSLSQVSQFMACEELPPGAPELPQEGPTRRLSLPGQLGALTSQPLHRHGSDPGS

Clearance of Human microsome [1] [L/h/kg] | IC50 (TLR7 and TLR8) [µM] | SMILES | IC50 (hERG channel) [µM] | IC20 (hERG channel) [µM] | hERG IC20/TLR7 IC50 (hERG channel) | hERG IC20/TLR8 IC50 (hERG channel) | hERG IC20/TLR9 IC50 (hERG channel)
0.369 | – | Cc1cn2cc(-c3ccc(N4CCC(N5CCNCC5)CC4)nc3C(C)C)cc(C)c2n1 [Example 3, 6-[2-isopropyl-6-(4-piperazin-1-yl-1-piperidyl)-3-pyridyl]-2,8-dimethyl-imidazo[1,2-a]pyridine] | – | – | – | – | –
0.495 | – | Cc1cn2cc(-c3ccc(N4CCC(N)CC4)nc3C(C)C)cc(C)c2n1 [Example 4, 1-[5-(2,8-dimethylimidazo[1,2-a]pyridin-6-yl)-6-isopropyl-2-pyridyl]piperidin-4-amine] | > 10 | 4.21 | 471.9 | 1448.2 | 27.2
0.432 | 0.008 | Cc1cc(-c2cc(C)c3nccn3c2)cnc1N1CCC(N2CCN(C)CC2)CC1 [Example 9, 8-methyl-6-[5-methyl-6-[4-(4-methylpiperazin-1-yl)-1-piperidyl]-3-pyridyl]imidazo[1,2-a]pyridine] | – | – | – | – | –
0.549 | – | Cc1cc(-c2ccc(N3CCC(N4CCNCC4)CC3)nc2C(F)F)cn2ccnc12 [Example 10, 6-[2-(difluoromethyl)-6-(4-piperazin-1-yl-1-piperidyl)-3-pyridyl]-8-methyl-imidazo[1,2-a]pyridine] | – | – | – | – | –
0.421 | – | Cc1cn2cc(-c3ccc(N4CCC(N5CCNCC5)CC4)nc3C(F)F)cc(C)c2n1 [Example 11, 6-[2-(difluoromethyl)-6-(4-piperazin-1-yl-1-piperidyl)-3-pyridyl]-2,8-dimethyl-imidazo[1,2-a]pyridine] | – | – | – | – | –
0.369 | 0.016 | Cc1cn2cc(-c3ccc(N4CCC(N5CC(C)(N)C5)CC4)nc3C(F)F)cc(C)c2n1 [Example 12, 1-[1-[6-(difluoromethyl)-5-(2,8-dimethylimidazo[1,2-a]pyridin-6-yl)-2-pyridyl]-4-piperidyl]-3-methyl-azetidin-3-amine] | – | – | – | – | –
0.567 | – | CCc1nc(N2CCC(N3CC4(CNCCO4)C3)CC2)ccc1-c1cc(C)c2nccn2c1 [Example 14, 2-[1-[6-ethyl-5-(8-methylimidazo[1,2-a]pyridin-6-yl)-2-pyridyl]-4-piperidyl]-5-oxa-2,8-diazaspiro[3.5]nonane] | – | – | – | – | –
0.369 | – | CCc1nc(N2CCC(N3C[C@@H](N)[C@H](OC)C3)CC2)ccc1-c1cc(C)c2nccn2c1 [Example 15, (3R,4R)-1-[1-[6-ethyl-5-(8-methylimidazo[1,2-a]pyridin-6-yl)-2-pyridyl]-4-piperidyl]-4-methoxy-pyrrolidin-3-amine] | > 20 | 8.36 | 2144.2 | 2090 | 38.7
– | – | CCc1nc(N2CCC(C)(N)CC2)ccc1-c1cc(C)c2nc(C)cn2c1 [Example 20, 1-[5-(2,8-dimethylimidazo[1,2-a]pyridin-6-yl)-6-ethyl-2-pyridyl]-4-methyl-piperidin-4-amine] | > 20 | > 10 | >1666.7 | >636.9 | >44.2
0.369 | – | CCc1cc(-c2cc(C)c3nccn3c2)cnc1N1CCC2(CCNCC2)CC1 [Example 22, 3-[3-ethyl-5-(8-methylimidazo[1,2-a]pyridin-6-yl)-2-pyridyl]-3,9-diazaspiro[5.5]undecane] | – | – | – | – | –
0.369 | 0.0045 | COc1nc(N2CCC(N3CCNCC3)CC2)ccc1-c1cc(C)c2nccn2c1 [Example 25, 6-[2-methoxy-6-(4-piperazin-1-yl-1-piperidyl)-3-pyridyl]-8-methyl-imidazo[1,2-a]pyridine] | > 20 | 5.78 | 837.6 | 516.0 | 62.8

From patent publication US20230279001A1, “IMIDAZO[1,2-A]PYRIDINE COMPOUNDS FOR THE TREATMENT OF AUTOIMMUNE DISEASE” (Hoffmann-La Roche Inc., priority 2020, published 2023)
